Consider 32 compounds from patent US9611221B2, “Histone demethylase inhibitors” (CELGENE QUANTICEL RESEARCH, INC., priority 2012, dated 2017).

pIC50: −log10 of the molar value.

For the assay, the target named is JMJD2C (Homo sapiens (Human), UniProt Q9H3R0). Description: JMJD2C in vitro enzyme inhibition assay (TR-FRET). In kind it is biochemical. The following applies: 0.3 nM JMJD2C, 300 nM H3K9me3-biotin peptide, 2 μM alpha-ketoglutaric acid. The source says: This assay determines the ability of a test compound to inhibit Jarid1A, Jarid1B, and JMJD2C demethylase activity. Baculovirus expressed Jarid1A (GenBank Accession #NM_001042603, AA1-1090) was purchased from BPS Bioscience (Cat#50110). Baculovirus expressed Jarid1B (GenBank Accession #NM_006618, AA 2-751) was purchased from BPS Bioscience (Cat #50121) or custom made by MolecularThroughput. Baculovirus expressed JMJD2C (GenBank Accession #BC143571, AA 2-372) was purchased from BPS Bioscience (Cat#50105).
The ability of test compounds to inhibit the activity of JMJD2C was determined in 384-well plate format under the following reaction conditions: 0.3 nM JMJD2C, 300 nM H3K9me3-biotin labeled peptide (Anaspec cat #64360), 2 μM alpha-ketoglutaric acid in assay buffer of 50 mM HEPES, pH7.3, 0.005% Brij35, 0.5 mM TCEP, 0.2 mg/ml BSA, 50 μM sodium L-ascorbate, and 2 μM ammonium iron(II) sulfate. Reaction product was determined quantitatively by TR-FRET after the addition of detection reagent Phycolink Streptavidin-allophycocyanin (Prozyme) and Europium-anti-di-methylated histone H3 lysine 9 (H3K9me2) antibody (PerkinElmer) in the presence of 5 mM EDTA in LANCE detection buffer (PerkinElmer) at a final concentration of 50 nM and 1 nM, respectively.
The reaction mixture was incubated at room temperature for 30 minutes, and terminated by the addition of 6 μl of 5 mM EDTA in LANCE detection buffer containing 100 nM Phycolink Streptavidin-allophycocyanin and 2 nM Europium-anti-H3K9me2 antibody. Plates were read by EnVisionMultilabel Reader in TR-FRET mode (excitation at 320 nm, emission at 615 nm and 665 nm) after 1 hour incubation at room temperature. A ratio was calculated (665/615) for each well and fitted to determine inhibition constant (IC50).
For orientation: In TR-FRET formats the signal depends on donor and acceptor labels being close together.

Sequence of JMJD2C (Q9H3R0 2-372): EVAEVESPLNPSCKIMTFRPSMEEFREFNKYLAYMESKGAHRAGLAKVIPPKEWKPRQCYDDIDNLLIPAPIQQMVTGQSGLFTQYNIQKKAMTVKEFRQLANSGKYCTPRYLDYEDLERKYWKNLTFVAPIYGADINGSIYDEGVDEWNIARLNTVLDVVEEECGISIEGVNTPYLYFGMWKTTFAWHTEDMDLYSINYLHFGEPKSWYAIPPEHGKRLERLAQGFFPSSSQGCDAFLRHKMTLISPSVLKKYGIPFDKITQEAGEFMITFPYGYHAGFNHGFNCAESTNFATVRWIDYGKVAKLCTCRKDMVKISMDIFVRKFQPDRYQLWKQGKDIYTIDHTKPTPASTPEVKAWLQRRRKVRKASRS

Broadly, the pIC50 is −log10 of the IC50, conventionally taken in molar units. Higher therefore signals a small IC50. On to “3-{[(6-chloro-1,2,3,4-tetrahydronaphthalen-1- yl)methyl]amino}pyridine-4-carboxylic acid [Example 68]”, for which the negative-log IC50 (pIC50) was 6.00 to 7.00.
“3-{[(6-chloro-1-hydroxy-1,2,3,4- tetrahydronaphthalen-1- yl)methyl]amino}pyridine-4-carboxylic acid [Example 67]”: the pIC50 was 6.00 to 7.00.
As for “3-{[(7-fluoro-3,4-dihydro-2H-chromen-4- yl)methyl]amino}pyridine-4-carboxylic acid [Example 65]”, the pIC50 is ≥ 7.00.
With `CC(C)Oc1ccc(CNc2cnccc2C(=O)O)cc1` [Example 11, 3-{[4-(propan-2-yloxy)benzyl]amino}pyridine-4-carboxylic acid], the pIC50 was 6.00 to 7.00.
As to `O=C(O)c1ccncc1NCC1=CCCc2ccc(F)cc21` [Example 51, 3-{[(7-fluoro-3,4-dihydronaphthalen-1-yl)methyl]amino}pyridine-4-carboxylic acid], the negative-log IC50 (pIC50) was 6.00 to 7.00.
Regarding `Cc1cc(C)c2c(c1)C(CNc1cnccc1C(=O)O)CCC2` (centres unmarked) [Example 52, 3-{[(5,7-dimethyl-1,2,3,4-tetrahydronaphthalen-1-yl)methyl]amino}pyridine-4-carboxylic acid], the pIC50 was 5.00 to 6.00.
For `O=C(O)c1ccncc1NCC1CCCc2c(F)cccc21` (centres unmarked) [Example 54, 3-{[(5-fluoro-1,2,3,4-tetrahydronaphthalen-1-yl)methyl]amino}pyridine-4-carboxylic acid] the value was 6.00 to 7.00; for `O=C(O)c1ccncc1NCC1(O)CCCc2c(F)cccc21` (centres unmarked) [Example 55, 3-{[(5-fluoro-1-hydroxy-1,2,3,4-tetrahydronaphthalen-1-yl)methyl]amino}pyridine-4-carboxylic acid], 6.00 to 7.00.
Turning to `O=C(O)c1ccncc1NC[C@H]1CCCc2c(F)cccc21` [Example 56, 3-({[(1S)-5-fluoro-1,2,3,4-tetrahydronaphthalen-1-yl]methyl}amino)pyridine-4-carboxylic acid], the pIC50 was ≥ 7.00.
Regarding `O=C(O)c1ccncc1NC[C@@H]1CCCc2c(F)cccc21` [Example 57, 3-({[(1R)-5-fluoro-1,2,3,4-tetrahydronaphthalen-1-yl]methyl}amino)pyridine-4-carboxylic acid], the pIC50 is 6.00 to 7.00.
`CC1(C)CCC(CNc2cnccc2C(=O)O)c2ccccc21` (centres unmarked) [Example 59, 3-{[(4,4-dimethyl-1,2,3,4-tetrahydronaphthalen-1-yl)methyl]amino}pyridine-4-carboxylic acid]: the pIC50 is 6.00 to 7.00.
On to `COc1ccc2c(c1)CCC[C@@H]2CNc1cnccc1C(=O)O` [Example 61, 3-({[(1S)-6-methoxy-1,2,3,4-tetrahydronaphthalen-1-yl]methyl}amino)pyridine-4-carboxylic acid], for which the pIC50 is 6.00 to 7.00.
`COc1ccc2c(c1)CCC[C@H]2CNc1cnccc1C(=O)O` [Example 62, 3-({[(1R)-6-methoxy-1,2,3,4-tetrahydronaphthalen-1-yl]methyl}amino)pyridine-4-carboxylic acid] had a pIC50 of 6.00 to 7.00.
`CC(C)Oc1ccc2c(c1)CCCC2CNc1cnccc1C(=O)O` (centres unmarked) [Example 64] gave a pIC50 of 6.00 to 7.00.
Next, `O=C(O)c1ccncc1NCC1CCOc2cc(Cl)ccc21` (centres unmarked) [Example 66, 3-{[(7-chloro-3,4-diydro-2H-chromen-4-y)methyl]amino}pyridine-4-carboxylic acid]: 6.00 to 7.00; `O=C(O)c1ccncc1NCC1CCOc2cc(-c3ccccc3)ccc21` (centres unmarked) [Example 69, 3-{[(7-phenyl-3,4-dihydro-2H-chromen-4-yl)methyl]amino}pyridine-4-carboxylic acid]: 6.00 to 7.00.
For `O=C(O)c1ccncc1NCC1CCOc2cc(F)ccc21` (centres unmarked) [Example 70, 3-{[(7-fluoro-3,4-dihydro-2H-chromen-4-yl)methyl]amino}pyridine-4-carboxylic acid] the value was 6.00 to 7.00; for `O=C(O)c1ccncc1NCC1CCOc2c(F)cccc21` (centres unmarked) [Example 71, 3-{[(8-fluoro-3,4-dihydro-2H-chromen-4-yl)methyl]amino}pyridine-4-carboxylic acid], ≥ 7.00; for `O=C(O)c1ccncc1NCC1CCCc2ccc(Cl)cc21` (centres unmarked) [Example 72, 3-{[(7-chloro-1,2,3,4-tetrahydronaphthalen-1-yl)methyl]amino}pyridine-4-carboxylic acid], 6.00 to 7.00.
For `O=C(O)c1ccncc1NCC1CCCc2ccc(-c3ccccc3)cc21` (centres unmarked) [Example 73, 3-{[(7-phenyl-1,2,3,4-tetrahydronaphthalen-1-yl)methyl]amino}pyridine-4-carboxylic acid] the value was 6.00 to 7.00; for `COc1cccc2c1CCCC2CNc1cnccc1C(=O)O` (centres unmarked) [Example 74, 3-{[(5-methoxy-1,2,3,4-tetrahydronaphthalen-1-yl)methyl]amino}pyridine-4-carboxylic acid], 6.00 to 7.00.
Compound `O=C(O)c1ccncc1NCC1CCOc2cc(C3CC3)ccc21` (centres unmarked) [Example 75, 3-{[(7-cyclopropyl-3,4-dihydro-2H-chromen-4-yl)methyl]amino}pyridine-4-carboxylic acid] gave a pIC50 of 6.00 to 7.00.
Next, `O=C(O)c1ccncc1NCC1CCCc2c(OCC3CC3)cccc21` (centres unmarked) [Example 76]: 5.00 to 6.00; `O=C(O)c1ccncc1NCC1CCCc2c(Oc3ccccc3)cccc21` (centres unmarked) [Example 77, 3-{[(5-phenoxy-1,2,3,4-tetrahydronaphthalen-1-yl)methyl]amino}pyridine-4-carboxylic acid]: 5.00 to 6.00; `O=C(O)c1ccncc1NCC1CCSc2ccccc21` (centres unmarked) [Example 78, 3-[(3,4-dihydro-2H-thiochromen-4-ylmethyl)amino]pyridine-4-carboxylic acid]: 6.00 to 7.00.
`O=C(O)c1ccncc1NCC1CCCc2cc(OCCC(F)(F)F)ccc21` (centres unmarked) [Example 79] had a pIC50 of 6.00 to 7.00.
`O=C(O)c1ccncc1NCC1CCCc2cc(OCC3CC3)ccc21` (centres unmarked) [Example 81] showed a pIC50 of 6.00 to 7.00.
For `CN1CCC(CNc2cnccc2C(=O)O)c2ccccc21` (centres unmarked) [Example 82, 3{[(1-methyl-1,2,3,4-tetrahydroquinolin-4-yl)methyl]amino}pyridine-4-carboxylic acid] the value was 6.00 to 7.00; for `O=C(O)c1ccncc1NC[C@H]1CCOc2cc(-c3ccccc3)ccc21` [Example 83, 3-({[(4S)-7-phenyl-3,4-dihydro-2H-chromen-4-yl]methyl}amino)pyridine-4-carboxylic acid], 6.00 to 7.00.
Next, `O=C(O)c1ccncc1NC[C@@H]1CCOc2cc(-c3ccccc3)ccc21` [Example 84, 3-({[(4R)-7-phenyl-3,4-dihydro-2H-chromen-4-yl]methyl}amino)pyridine-4-carboxylic acid]: 6.00 to 7.00; `O=C(O)c1ccncc1NC[C@H]1CCOc2cc(-c3cccc(F)c3)ccc21` [Example 85, 3-({[(4S)-7-(3-fluorophenyl)-3,4-dihydro-2H-chromen-4-yl]methyl}amino)pyridine-4-carboxylic acid]: 6.00 to 7.00.
For `O=C(O)c1ccncc1NC[C@@H]1CCOc2cc(-c3cccc(F)c3)ccc21` [Example 86, 3-({[(4R)-7-(3-fluorophenyl)-3,4-dihydro-2H-chromen-4-yl]methyl}amino)pyridine-4-carboxylic acid] the value was 5.00 to 6.00.
